Measured values published in US12630565B2, “DNA-dependent protein kinase inhibitor” (DIZAL (JIANGSU) PHARMACEUTICAL CO., LTD., priority 2019, dated 2026).

Key:
[1] = system: MDCKII-MDR1-BCRP cell monolayers; experiment: MDCKII-MDR1-BCRP efflux assay; type: in vitro ADME; conditions: 5 μM compound, 120 min, HBSS pH 7.4
How it was run: (§1)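 Bidirectional (A-B, B-A) transport of 5 μM compound across MDCKII-MDR1-BCRP monolayers in HBSS, 25 mM HEPES pH 7.4, ~37° C. for 120 min, triplicate; donor and receiver concentrations measured, monolayer integrity checked with Lucifer yellow. Papp and efflux ratio calculated.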

[2] = biological target: Full length human DNAPK protein (Homo sapiens, UniProt P78527); experiment: DNA-PK enzymatic assay (TR-FRET); type: biochemical; conditions: 10 μM ATP, 1.6 μM peptide substrate
Rat hepatocyte = experiment: Metabolic stability assay (rat hepatocyte Clint); type: in vitro ADME; conditions: 1 μM compound, cryopreserved hepatocytes 1 million cells per mL
How it was run: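 Compound at 1 μM incubated with cryopreserved rat hepatocytes, 1 million cells/mL, sampled 0–120 min with acetonitrile quench and LC-MS/MS quantitation. CLint (μL/min/E6) derived from elimination rate constant and half-life of parent disappearance, scaled by cell concentration.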

[3] = Metabolic stability assay (human microsomal Clint); type: in vitro ADME; conditions: 1 mg/mL microsomes, 1 mM NADPH, 37° C.; for Human liver microsomal CLint: 1 μM compound; for microsomal CLint at 1 μM: human, pooled human liver microsomes, pH 7.4, 1 μM compound
How it was run: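 Compound (1 μM) incubated at 37 °C with pooled human liver microsomes (1 mg/mL) and 1 mM NADPH in 100 mM phosphate, pH 7.4. Samples quenched in acetonitrile at 0–30 min and analysed by LC-MS/MS for parent loss. CLint reported in μl/min/mg.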

MDR1, BCRP = experiment: MDCKII-MDR1-BCRP efflux assay; type: in vitro ADME; conditions: dog, pH 7.4, 5 μM compound, HBSS pH 7.4, read-out: MDCK-Mdr1-BCRP efflux ratio
How it was run: as §1

Structure (SMILES)	MDCK-Mdr1-BCRP efflux ratio [1]	IC50 [2] [nM]	Rat hepatocyte CLint (μl/min/10^−6 cells) (Rat hepatocyte)	Human liver microsomal CLint [3] [µL/min/mg]	efflux ratio at 120 min, 5 μM (MDR1, BCRP)	microsomal CLint at 1 μM [3] [µL/min/mg]
Cc1cc2ncnn2cc1Nc1ncc2c(C)nn(C3CC(C)OC(C)C3)c2n1 (single isomer, unassigned) [Example 86-1, 1-(2,6-dimethyltetrahydro-2H-pyran-4-yl)-3-methyl-N-(7-methyl-[1,2,4]triazolo[1,5-a]pyridin-6-yl)-1H-pyrazolo[3,4-d]pyrimidin-6-amine]	0.9	3	42.7	>300	–	–
Cc1cc(-c2nn(C)c3cnc(Nc4cn5ncnc5cc4C)nc23)ccn1 [Example 102, 1-methyl-N-(7-methyl-[1,2,4]triazolo[1,5-a]pyridin-6-yl)-3-(2-methylpyridin-4-yl)-1H-pyrazolo[4,3-d]pyrimidin-5-amine]	–	0.9	32.0	–	14	15
Cc1cc2ncnn2cc1Nc1ncc2c(n1)c([C@H]1CC[C@H](OC(F)F)CC1)nn2C [Example 12, 3-((1r,4r)-4-(difluoromethoxy)cyclohexyl)-1-methyl-N-(7-methyl-[1,2,4]triazolo[1,5-a]pyridin-6-yl)-1H-pyrazolo[4,3-d]pyrimidin-5-amine]	–	1.1	70.3	–	2.1	109
Cc1cc2ncnn2cc1Nc1ncc2c(C)nn([C@H]3CC[C@@H](O)CC3)c2n1 [Example 32, (1s,4s)-4-(3-methyl-6-((7-methyl-[1,2,4]triazolo[1,5-a]pyridin-6-yl)amino)-1H-pyrazolo[3,4-d]pyrimidin-1-yl)cyclohexan-1-ol]	–	1.9	11.5	–	9.4	9.1
Cc1cc2ncnn2cc1Nc1ncc2c(C)nn(C(C)C)c2n1 [Example 59, 1-isopropyl-3-methyl-N-(7-methyl-[1,2,4]triazolo[1,5-a]pyridin-6-yl)-1H-pyrazolo[3,4-d]pyrimidin-6-amine]	–	4.5	5.5	–	0.7	20.2
Cc1cc2ncnn2cc1Nc1ncc2c(C)nn(C3CCN(C)CC3)c2n1 [Example 19, 3-methyl-N-(7-methyl-[1,2,4]triazolo[1,5-a]pyridin-6-yl)-1-(1-methylpiperidin-4-yl)-1H-pyrazolo[3,4-d]pyrimidin-6-amine]	–	25.9	6.8	–	13.1	4.3
Cc1cc2ncnn2cc1Nc1ncc2c(C)nn(C3CC4(COC4)C3)c2n1 [Example 42, 3-methyl-N-(7-methyl-[1,2,4]triazolo[1,5-a]pyridin-6-yl)-1-(2-oxaspiro[3.3]heptan-6-yl)-1H-pyrazolo[3,4-d]pyrimidin-6-amine]	–	7.5	34.2	–	4.8	19.5
[2H]C([2H])([2H])n1nc(C2CCOCC2)c2nc(Nc3cn4ncnc4cc3C)ncc21 [Example 10, 1-(methyl-d3)-N-(7-methyl-[1,2,4]triazolo[1,5-a]pyridin-6-yl)-3-(tetrahydro-2H-pyran-4-yl)-1H-pyrazolo[4,3-d]pyrimidin-5-amine]	–	1.7	6.8	–	7.2	17.2
Cc1cc2ncnn2cc1Nc1ncc2c(C)nn(C3CC4(C3)CC(F)(F)C4)c2n1 [Example 41, 1-(6,6-difluorospiro[3.3]heptan-2-yl)-3-methyl-N-(7-methyl-[1,2,4]triazolo[1,5-a]pyridin-6-yl)-1H-pyrazolo[3,4-d]pyrimidin-6-amine]	–	1.4	65.5	–	1.5	216
Cc1cc2nccn2cc1Nc1ncc2c(C)nn(CC(C)C#N)c2n1 (centres unmarked) [Example 80, 2-methyl-3-(3-methyl-6-((7-methylimidazo[1,2-a]pyridin-6-yl)amino)-1H-pyrazolo[3,4-d]pyrimidin-1-yl)propanenitrile]	–	2.1	9.3	–	19	23.5

More lines, now with the values ahead:

MDCK-Mdr1-BCRP efflux ratio [1]	IC50 [2] [nM]	Rat hepatocyte CLint (μl/min/10^−6 cells) (Rat hepatocyte)	Human liver microsomal CLint [3] [µL/min/mg]	efflux ratio at 120 min, 5 μM (MDR1, BCRP)	microsomal CLint at 1 μM [3] [µL/min/mg]	Structure (SMILES)
2	4	11.9	87.2	–	–	COC1CCC(n2nc(C)c3cnc(Nc4cn5ncnc5cc4C)nc32)C1 (single isomer, unassigned) [Example 109, 1-(3-methoxycyclopentyl)-3-methyl-N-(7-methyl-[1,2,4]triazolo[1,5-a]pyridin-6-yl)-1H-pyrazolo[3,4-d]pyrimidin-6-amine]
3.4	1.7	<1	8.7	–	–	Cc1cc2ncnn2cc1Nc1ncc2c(C)nn(C3CCOC3)c2n1 (single isomer, unassigned) [Example 49, 3-methyl-N-(7-methyl-[1,2,4]triazolo[1,5-a]pyridin-6-yl)-1-(tetrahydrofuran-3-yl)-1H-pyrazolo[3,4-d]pyrimidin-6-amine]
4	3.2	8.2	60.5	–	–	Cc1cc2ncnn2cc1Nc1ncc2c(C)nn(C3CCOCC3C)c2n1 (single isomer, unassigned) [Example 113, 3-methyl-N-(7-methyl-[1,2,4]triazolo[1,5-a]pyridin-6-yl)-1-(3-methyltetrahydro-2H-pyran-4-yl)-1H-pyrazolo[3,4-d]pyrimidin-6-amine]
1.8	1.8	9.1	50.4	–	–	Cc1cc2ncnn2cc1Nc1ncc2c(C)nn(C3CCOC(C)(C)C3)c2n1 (single isomer, unassigned) [Example 117, 1-(2,2-dimethyltetrahydro-2H-pyran-4-yl)-3-methyl-N-(7-methyl-[1,2,4]triazolo[1,5-a]pyridin-6-yl)-1H-pyrazolo[3,4-d]pyrimidin-6-amine]
2	1.9	7.7	53.5	–	–	Cc1cc2ncnn2cc1Nc1ncc2c(C)nn(C3CCOCC3C)c2n1 (single isomer, unassigned) [Example 115, 3-methyl-N-(7-methyl-[1,2,4]triazolo[1,5-a]pyridin-6-yl)-1-(3-methyltetrahydro-2H-pyran-4-yl)-1H-pyrazolo[3,4-d]pyrimidin-6-amine]
2	1.7	8.5	50.4	–	–	Cc1cc2ncnn2cc1Nc1ncc2c(C)nn(C3CCOCC3C)c2n1 (single isomer, unassigned) [Example 114, 3-methyl-N-(7-methyl-[1,2,4]triazolo[1,5-a]pyridin-6-yl)-1-(3-methyltetrahydro-2H-pyran-4-yl)-1H-pyrazolo[3,4-d]pyrimidin-6-amine]
–	24	1.9	–	4.3	8.8	Cc1cc2ncnn2cc1Nc1ncc2c(C)nn(C3COC3)c2n1 [Example 44, 3-methyl-N-(7-methyl-[1,2,4]triazolo[1,5-a]pyridin-6-yl)-1-(oxetan-3-yl)-1H-pyrazolo[3,4-d]pyrimidin-6-amine]
–	1.5	11.3	–	3	41.5	Cc1cc2ncnn2cc1Nc1ncc2c(C)nn(C3CCCOCC3)c2n1 (single isomer, unassigned) [Example 33, 3-methyl-N-(7-methyl-[1,2,4]triazolo[1,5-a]pyridin-6-yl)-1-(oxepan-4-yl)-1H-pyrazolo[3,4-d]pyrimidin-6-amine]
–	2	13.3	–	1.6	24.5	Cc1cc2ncnn2cc1Nc1ncc2c(C)nn(C3CCCOC3)c2n1 (single isomer, unassigned) [Example 29, 3-methyl-N-(7-methyl-[1,2,4]triazolo[1,5-a]pyridin-6-yl)-1-(tetrahydro-2H-pyran-3-yl)-1H-pyrazolo[3,4-d]pyrimidin-6-amine]
–	10.8	4.9	–	3.2	14.1	Cc1cc2ncnn2cc1Nc1ncc2c(C)nn(CC3CCOC3)c2n1 (single isomer, unassigned) [Example 52, 3-methyl-N-(7-methyl-[1,2,4]triazolo[1,5-a]pyridin-6-yl)-1-((tetrahydrofuran-3-yl)methyl)-1H-pyrazolo[3,4-d]pyrimidin-6-amine]
